This passage reports EC50 results from patent publication US20210163489A1, “PYRAZOLOPYRIMIDINE DERIVATIVES AND THE COMPOSITIONS AND METHODS OF TREATMENT REGARDING THE SAME” (NysnoBio Ireland DAC, priority 2016, published 2021).

A value given as a limit tells only on which side of the number the result lay.

The target in the test is T1, Parkin (Homo sapiens, UniProt O60260).
T1 construct: Enzyme 3: Parkin-His tagged 203 μM (10.5 mg/ml)
T1 sequence (O60260 whole entry, other chains not shown): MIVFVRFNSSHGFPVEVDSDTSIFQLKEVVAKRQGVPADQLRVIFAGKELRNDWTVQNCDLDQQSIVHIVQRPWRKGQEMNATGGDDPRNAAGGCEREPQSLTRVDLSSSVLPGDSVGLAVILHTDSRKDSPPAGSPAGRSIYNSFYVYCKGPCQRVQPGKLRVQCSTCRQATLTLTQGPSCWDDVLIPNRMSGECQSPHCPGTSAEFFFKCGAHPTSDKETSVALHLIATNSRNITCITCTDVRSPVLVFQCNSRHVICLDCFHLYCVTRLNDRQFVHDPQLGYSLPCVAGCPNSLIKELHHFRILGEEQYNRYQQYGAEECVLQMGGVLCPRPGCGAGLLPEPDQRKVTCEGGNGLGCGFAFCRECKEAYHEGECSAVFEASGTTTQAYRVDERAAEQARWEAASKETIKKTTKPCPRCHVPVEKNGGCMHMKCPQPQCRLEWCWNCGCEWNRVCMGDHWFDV
Kind of test: Parkin pUB auto-ubiquitinylation assay (TR-FRET). It counts as biochemical. As to conditions: activation of pUb activated Parkin; read-out: Auto-ubiq EC50 (μM) [Example 3]. An excerpt: A Parkin pUB Auto-ubiquitinylation Assay is used to evaluate a compound's potency to activate Parkin's ability to Auto-ubiquitinylate itself.
The principle of this assay is that the E3 Ligase Parkin catalyzes the transfer of Ubiquitin to target proteins, but also has the ability to auto-ubiquitinylate itself. The phospho-Ubiquition (pUb) added to the assay alters the Parkin to a state where small molecule activators can enable the Parkin to auto-ubiquitinylate though the E1-E2 cascade reaction. The use of a Eu cryptate Ubiquition and anti 6His-d2 that binds to the His tagged Parkin will give a signal when the Eu cryptate Ubiquition is auto-ubiquitinylate onto the Parkin which can be monitored by TR-FRET.
Similar to the Activity-based probe assay in Example 2, screening for activating compounds can be distinguished from the controls as follows:
100% activation signal=pUb activated Parkin+40 nM control activator in DMSO. 0% activation signal=pUb activated Parkin+DMSO only. Parkin activators can be identified by an increase of the 0% activation signal TR-FRET signal.
• Assay Plate: White 384 well plate (Corning 3572) • Enzyme 1: E1 (Ubiquitin-activating enzyme/UBE1 Boston Biochem E-305) • Enzyme 2: E2 (UBcH7/Ube2L3 Boston Biochem E2-640) • Enzyme 3: Parkin-His tagged 203 μM (10.5 mg/ml) • pUb: Phospho-Ubiquitin (S65) (Boston Biochem U-102) • Eu Cryptate Reagent: Ubiquitin Eu (CisBio 61UBIKLA) • DMSO: DMSO (Sigma-34869-2.5L) • Reaction Buffer: 50 mM HEPES, 50 mM NaCl, 1 mM MgCl2, 0.005% Tween 20, 0.1% • PF-127 (Fisher Scientific 50-310-494), pH 8.5 • Detection Buffer: 50 mM HEPES, 50 mM NaCl, 800 mM KF, 5 mM EDTA, 0.005% • Tween 20, 0.1% PF-127, pH 8.5 • Detection Reagent Z: 13.4 nM Anti-6His-d2 in detection buffer • d2 Reagent: Anti-6His-d2 (CisBio 61HISDLA)
Enzyme Reaction (15 min Pre-Incubation with Parkin, pUb and Activator Only) • Parkin: 196 nM • pUb: 196 nM • DMSO: 1% DMSO • E1: 5 nM • E2: 50 nM • Ubiquitin Eu: 8.8 nM • Reaction time: 120 minutes • Temperature: 22° C. • Total volume: 10 μl reaction
Take 10 μl of Enzyme Reaction above and add 10 μl detection Reagent Z under the following conditions:
Reaction time: 60 minutes
1) Load assay plate wells with 4.9 μl 400.0 nM Parkin, 400 nM pUb in reaction buffer by use of Eppendorf 12-channel pipette. 2) Deliver 0.1 μl 100× activator candidates in DMSO by use of Echo 555 compound dispenser. Highest 100× concentration=100 μm and then twofold dilutions. Add each compound and control in duplicate wells. 3) Spin 1000 rpm, 2 minutes, at room temp. 4) Incubate plate for 15 minutes at room temp. 5) Add 5 μl 10 nM E1, 100 nM E2, 17.6 nM Ubiquitin Eu and 2 mM ATP in Reaction Buffer by use of Eppendorf 12-channel pipette. 6) Spin 1000 rpm, 2 minutes, at room temp. 7) Incubate plate for 120 minutes at room temp. 8) Add 10 μl 13.4 nM anti his d2 in detection buffer by use of Eppendorf 12-channel pipette. 9) Spin 1000 rpm, 2 minutes, at room temp. 10) Incubate plate for 120 minutes at room temp. 11) Read plates on Perkin Elmer Envision instrument with the following parameters:
LANCE dual laser protocol loaded into the Envision® software
Top Mirror: LANCE/DELFIA Duel/Bias (Bar code 446) Emission Filter: APC 665 EM (Bar code 205) 2nd Emission Filter: Europium 615 EM (Bar code 203) Read […] (channel 1) and 615 nm (channel 2) wavelengths on Envision®
Data Analysis: The Data can be read in CSV files. There are two tables in those CSV files, which are the values of 655 nm (channel 1) and 615 nm (channel 2) wavelengths respectively. The data is converted to an HTRF Ratio=(Channel 1/Channel 2)*10,000
The average of all the 0 uM controls (DMSO only)=BKGD (Background—0% activation). Subtract BKGD from each HTRF Ratio value=HTRF-BKGD. The average of all the 100 uM control activator in DMSO controls=Max (100% activation). The following equation is then used to calculate % Activation for each well/candidate as follows: % Activation=(HTRF−BKGD/Max)*100.
XLFIT5 model 205 was applied for the data analysis. […]
(Time-resolved FRET reads energy transfer from a long-lived donor to a nearby acceptor.)
Regarding `Cc1cc(S)c2ncc(-c3ccc(F)cc3)n2n1` [Compound F3], the EC50 (in general, the concentration that produces a half-maximal response) came to 32 µM.

With `Cc1cc(O)n2ncc(-c3ccc(F)cc3)c2n1` [PP], the EC50 is greater than 40 µM.

On to `Cc1nn2c(S)c3c(nc2c1-c1ccccc1)CCOC3` [WW], for which the EC50 is greater than 40 µM.

In the case of `Cc1nn2c(S)c(C)c(Cc3ccccc3)nc2c1-c1ccccc1` [ZZ], the EC50 was greater than 40 µM.

Regarding `Cc1cc(S)n2ncc(-c3cc[nH]c(=O)c3)c2n1` [Compound A3], the EC50 is greater than 40 µM.

As to `Cc1cc(C)c2c(n1)nn1c(O)c(Cc3ccccc3)c(C)nc21` [NN], the EC50 is greater than 40 µM.

For `Cc1nc2c(-c3ccccc3)c(C)nn2c(O)c1Cc1ccncc1` [Compound X, 2,5-dimethyl-3-phenyl-6-(4-pyridylmethyl)pyrazolo[1,5-a]pyrimidin-7-ol], the EC50 is greater than 40 µM.

Take `Cc1cc(S)n2ncc(-c3ccccc3)c2n1` [Compound C]: the EC50 is greater than 40 µM.

As for `Cc1nn2c(S)c3c(nc2c1-c1ccccc1)CCCC3` [Compound K], the EC50 was greater than 40 µM.

Take `Sc1c(Cc2ccccc2)cnc2c(-c3ccccc3)cnn12` [Compound Z, 6-benzyl-3-phenyl-pyrazolo[1,5-a]pyrimidin-7-thiol]: the EC50 is greater than 40 µM.

In the case of `Cc1nn2c(S)c3c(nc2c1-c1ccccc1)CN(C)CC3` [Compound C3], the EC50 was greater than 40 µM.

For the molecule `Cc1nn2c(S)cc(C(C)C)nc2c1-c1ccccc1` [H], the EC50 is greater than 40 µM.

`Cc1nc2c(C3CCN(C)CC3)c(C)nn2c(S)c1Cc1ccccc1` [Compound N3]: the 50% effective concentration (EC50) is greater than 40 µM.

Take `Cc1nc2c(C#N)c(C)nn2c(O)c1Cc1ccccc1` [Compound GG, 6-benzyl-7-hydroxy-2,5-dimethyl-pyrazolo-[1,5-a]pyrimidine-3-carbonitrile]: the EC50 is greater than 40 µM.

Consider `Cc1nc2c(-c3cccnc3)c(C)nn2c(O)c1Cc1ccccc1` [Compound L3], for which the EC50 was greater than 40 µM.
